The text below walks through data of ChEMBL document CHEMBL1158119, “Hyrtiazepine, an azepino-indole-type alkaloid from the Red Sea marine sponge Hyrtios erectus” (J Nat Prod, 2006).

Structures are written as SMILES.

The target in this assay is T1, Phospholipase A2 alpha (Crotalus adamanteus, UniProt P00623).
T1 sequence (P00623 whole entry): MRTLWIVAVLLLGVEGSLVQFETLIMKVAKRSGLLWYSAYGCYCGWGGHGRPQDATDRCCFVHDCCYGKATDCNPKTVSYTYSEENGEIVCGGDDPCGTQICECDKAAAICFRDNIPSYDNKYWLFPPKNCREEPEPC
The experiment in a line: Inhibition of Crotalus adamanteus venom phospholipase A2 by fluorometric assay.

`O=C(c1c[nH]c2ccc(O)cc12)c1nccc2c1[nH]c1ccc(O)cc12` [HYRTIOSULAWESINE]: the midpoint of inhibition, the IC50, lay at 14 µM.

As for `CC1=C(CC/C(C)=C/CCC2=CC[C@H](C3=CC(=O)O[C@H]3O)O[C@H]2O)C(C)(C)CCC1` [MANOALIDE], it took 0.4 µM to reach half-maximal inhibition (IC50).
